The target of one assay is Topoisomerase IIα (Homo sapiens, UniProt P11388). Briefly: Topo II cleavage assay. Set-up: key: ‘—’ = Not active. The settings on record: unit not given; compound at 1, 10, 25 and 50 μM in protocol. Format: biochemical. Here is the method:
(§1) Topo II 5 μl (1-1 μg); […] Results are included in Table 3 below.

Another assay concerns the target Topoisomerase IIβ (Homo sapiens, UniProt Q02880). As to the kind of experiment: Topo II cleavage assay. The assay is classed as biochemical. The settings on record: unit not given; compound at 1, 10, 25 and 50 μM in protocol. Here is the method: as §1
Assay [1] has as its system DNA: Calf thymus sodium salt. As to the kind of experiment: DNA binding assay, ethidium bromide displacement. The settings on record: concentration required to displace 50% of the ethidium bromide; 20 μM DNA, 2 μM dye. Set-up: key: NB = Not binding. As to the method:
(§2) The propensity of selected compounds to bind to DNA in the absence of topos was measured in order to identify compounds that would bind weakly, or not at all. […] A […] was used determine binding constants of the compound to DNA by displacement of either ethidium bromide (an intercalator) or Hoechst dye 33258 (a groove binder) which form a DNA-bound fluorescent complex measured by fluorescence spectroscopy.
(§3) DNA Binding Assay Protocol
(§4) In order to detect the strength and mode of anthraquinone compound binding to DNA the displacement of known DNA binders was detected by measuring the fluorescence of a DNA/fluorescent compound complex. The addition of known concentrations of ethidium bromide, an interchelator, and Hoescht Dye, a groove binder, cause a fluorescent DNA/binder complex that can be detected and the fluorescence quantified. The addition of anthraquinone compounds displaces the interchelators or groove binders, depending on the compound mode of DNA binding, and therefore reduces the fluorescence accordingly. The preferred binding action of compounds can be quantified by determining the reduction in fluorescence resulting from a given concentration of compound. The quantification of a compounds ability to bind to DNA is expressed, as the concentration required to displace 50% of the ethidium bromide or Hoescht Dye, thus reducing the fluorescence by 50%. Therefore, the values produced are QE50 for ethidium, bromide, or QH50 for Hoescht Dye.
(§5) Compound: 300, 60, 10 and 10/6gM (1.66 μM) solution concentrations were prepared for use in the assay to produce a range of compound. Concentrations. 100, 200 and 300 μl of each dilution were used in the assay reaction. This provides a range of concentrations: −30, 20, 10, 6, 4, 2, 1, 0.67, 0.33, 0.17, 0.11, 0.06, 0.00 μM in the assay environment. Intermediate concentrations can be utilised to enhance the accuracy of the displacement concentration determination.
(§6) Buffer: 100 mM Tris, NaCI 500 mM. DNA: Calf thymus sodium salt. Stock solution of 200 μM was prepared in 10× assay buffer. Dilution of DNA therefore provided the correct concentration of assay buffer in the assay cell.300 μg DNA was used in 3 ml reaction mixture therefore 20 μM DNA concentration. Hoescht Dye 2 μM final concentration, therefore 100 μl of a 60 μM stock solution was added to a 3 ml assay. Ethidium Bromide 2 μM final concentration therefore 100 μl of a 60 μM stock solution was added to a 3 ml assay. Distilled H2O Water was added to produce 3 ml reaction volume. Order of addition: 1. DNA, 2. Water, 3. Drug, 4. Dye
(§7) The assay was completed with both Hoescht Dye and Ethidium. Bromide for each compound. The ethidium bromide is a DNA inter-chelator, Hoescht Dye is a minor groove binder. 100, 200 and […] of the lowest compound dilution was assayed. This procedure was repeated with all further dilution's. This provided a curve of fluorescence intensity decrease with increasing compound concentration. QE50 and QH50 values were determined by extrapolating the concentration of compound at the point where the fluorescence intensity was reduced by 50%. Controls involving compound only and ethidium. bromide or Hoechst Dye without compound were carried out for each experiment. Two readings for each concentration of compound were performed per experiment, each experiment was repeated at least three times. Fluorometer: Perkin Elmer Luminescence Spectrometer LS 50B.

In assay [2] the test system is DNA: Calf thymus sodium salt. Briefly: DNA binding assay, Hoechst dye displacement. Set-up: key: NB = Not binding. The settings on record: concentration required to displace 50% of the Hoescht Dye; 20 μM DNA, 2 μM dye. As to the method:
as §2, §3, §4, §5, §6, §7

SMILES strings stand for the structures.

Chain of Topoisomerase IIβ (Q02880 whole entry): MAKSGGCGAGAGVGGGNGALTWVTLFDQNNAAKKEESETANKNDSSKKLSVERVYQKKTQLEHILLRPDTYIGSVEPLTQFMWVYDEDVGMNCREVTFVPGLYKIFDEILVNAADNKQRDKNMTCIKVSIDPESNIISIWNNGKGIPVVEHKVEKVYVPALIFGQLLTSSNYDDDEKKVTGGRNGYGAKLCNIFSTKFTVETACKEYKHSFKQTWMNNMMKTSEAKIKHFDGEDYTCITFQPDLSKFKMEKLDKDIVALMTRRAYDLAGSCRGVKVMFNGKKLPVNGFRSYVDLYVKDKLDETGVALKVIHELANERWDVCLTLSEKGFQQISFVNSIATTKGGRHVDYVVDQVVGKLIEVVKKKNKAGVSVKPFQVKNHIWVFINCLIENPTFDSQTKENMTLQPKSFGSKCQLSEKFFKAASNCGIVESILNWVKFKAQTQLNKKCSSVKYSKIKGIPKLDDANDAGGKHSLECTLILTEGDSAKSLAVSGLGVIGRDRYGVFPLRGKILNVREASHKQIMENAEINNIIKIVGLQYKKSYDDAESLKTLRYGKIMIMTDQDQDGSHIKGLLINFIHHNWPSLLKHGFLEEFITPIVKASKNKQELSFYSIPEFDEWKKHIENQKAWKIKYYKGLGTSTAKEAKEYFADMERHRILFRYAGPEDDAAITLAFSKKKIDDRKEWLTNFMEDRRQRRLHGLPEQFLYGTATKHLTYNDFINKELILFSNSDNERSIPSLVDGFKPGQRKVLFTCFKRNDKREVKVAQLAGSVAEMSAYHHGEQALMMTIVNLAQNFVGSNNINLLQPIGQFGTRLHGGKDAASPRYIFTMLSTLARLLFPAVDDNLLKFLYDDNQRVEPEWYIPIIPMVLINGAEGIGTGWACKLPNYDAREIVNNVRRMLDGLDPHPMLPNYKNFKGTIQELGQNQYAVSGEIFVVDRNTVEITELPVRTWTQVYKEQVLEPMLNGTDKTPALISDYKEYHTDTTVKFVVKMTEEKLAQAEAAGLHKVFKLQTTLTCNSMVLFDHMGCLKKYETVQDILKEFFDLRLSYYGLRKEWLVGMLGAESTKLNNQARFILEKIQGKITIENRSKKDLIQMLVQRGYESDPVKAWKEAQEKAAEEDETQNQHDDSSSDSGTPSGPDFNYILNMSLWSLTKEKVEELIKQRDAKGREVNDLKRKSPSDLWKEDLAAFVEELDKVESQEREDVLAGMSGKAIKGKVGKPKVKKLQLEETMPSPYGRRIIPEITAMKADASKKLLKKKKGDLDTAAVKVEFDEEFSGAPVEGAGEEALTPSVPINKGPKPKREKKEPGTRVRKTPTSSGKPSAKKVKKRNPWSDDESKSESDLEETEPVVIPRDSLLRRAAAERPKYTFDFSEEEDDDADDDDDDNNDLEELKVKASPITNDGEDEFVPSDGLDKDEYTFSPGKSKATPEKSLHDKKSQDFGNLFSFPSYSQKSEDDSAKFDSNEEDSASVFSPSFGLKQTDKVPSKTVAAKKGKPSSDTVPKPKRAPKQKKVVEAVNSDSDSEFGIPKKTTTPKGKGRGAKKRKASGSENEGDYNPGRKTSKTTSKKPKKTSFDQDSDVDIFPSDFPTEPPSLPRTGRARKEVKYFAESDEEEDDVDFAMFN
Chain of Topoisomerase IIα (P11388 whole entry): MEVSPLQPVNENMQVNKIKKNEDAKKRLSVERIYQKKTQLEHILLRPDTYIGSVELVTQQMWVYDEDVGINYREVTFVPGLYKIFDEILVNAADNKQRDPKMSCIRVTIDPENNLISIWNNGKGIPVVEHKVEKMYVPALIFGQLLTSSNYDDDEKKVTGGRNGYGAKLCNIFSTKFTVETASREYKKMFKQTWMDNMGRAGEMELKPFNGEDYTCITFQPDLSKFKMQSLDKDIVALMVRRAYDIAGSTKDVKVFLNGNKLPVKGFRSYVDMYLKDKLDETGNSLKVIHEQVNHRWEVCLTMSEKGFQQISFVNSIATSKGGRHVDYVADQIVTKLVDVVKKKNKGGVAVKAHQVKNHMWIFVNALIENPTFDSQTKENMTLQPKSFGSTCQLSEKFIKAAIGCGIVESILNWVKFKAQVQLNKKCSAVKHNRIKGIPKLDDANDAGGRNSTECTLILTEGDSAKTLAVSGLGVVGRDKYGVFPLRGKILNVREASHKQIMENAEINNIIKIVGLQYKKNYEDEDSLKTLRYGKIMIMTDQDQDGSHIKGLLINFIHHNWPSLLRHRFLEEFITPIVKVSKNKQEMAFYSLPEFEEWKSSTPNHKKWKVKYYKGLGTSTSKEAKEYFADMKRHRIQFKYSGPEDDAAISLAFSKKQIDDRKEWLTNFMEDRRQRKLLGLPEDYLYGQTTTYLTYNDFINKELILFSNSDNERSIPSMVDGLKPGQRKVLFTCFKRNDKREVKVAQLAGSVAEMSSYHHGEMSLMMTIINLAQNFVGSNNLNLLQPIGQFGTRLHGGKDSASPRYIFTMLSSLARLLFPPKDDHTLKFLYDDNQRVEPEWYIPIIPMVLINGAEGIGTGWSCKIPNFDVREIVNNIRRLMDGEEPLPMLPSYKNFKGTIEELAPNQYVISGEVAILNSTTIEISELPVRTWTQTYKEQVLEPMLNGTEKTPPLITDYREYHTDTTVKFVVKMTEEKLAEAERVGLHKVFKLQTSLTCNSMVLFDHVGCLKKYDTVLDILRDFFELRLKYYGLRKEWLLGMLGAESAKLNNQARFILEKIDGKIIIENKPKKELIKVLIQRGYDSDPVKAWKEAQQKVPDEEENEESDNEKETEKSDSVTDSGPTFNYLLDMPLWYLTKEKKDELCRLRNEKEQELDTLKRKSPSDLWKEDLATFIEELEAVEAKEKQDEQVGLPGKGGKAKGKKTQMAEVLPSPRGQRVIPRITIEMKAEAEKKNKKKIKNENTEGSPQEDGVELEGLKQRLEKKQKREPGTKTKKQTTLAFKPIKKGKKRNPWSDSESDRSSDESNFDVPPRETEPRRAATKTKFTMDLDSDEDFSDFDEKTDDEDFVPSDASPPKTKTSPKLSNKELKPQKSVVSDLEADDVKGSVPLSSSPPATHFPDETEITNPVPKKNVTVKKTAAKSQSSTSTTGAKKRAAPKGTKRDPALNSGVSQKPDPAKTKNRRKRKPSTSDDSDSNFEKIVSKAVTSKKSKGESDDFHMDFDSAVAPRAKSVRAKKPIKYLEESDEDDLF

For the compound `C[C@H](N)C(=O)OCCCCNc1cccc2c1C(=O)c1ccccc1C2=O.O=C(O)C(F)(F)F` [Example 43, 1-[4-(L-alanyloxy)butylamino]anthracene-9,10-dione trifluoroacetate], the “TopIIα Cleave.” value on Topoisomerase IIα is on record as “—”. Moreover, on Topoisomerase IIβ, the “TopIIβ Cleave.” value is 25. Moreover, the “QE50 Intercalating” value in assay [1] is given as “NB”. Moreover, the “QH50 Minor groove binding” value in assay [2] was “NB”.

As to `C[C@@H](N)C(=O)OCCCCNc1cccc2c1C(=O)c1ccccc1C2=O.O=C(O)C(F)(F)F` [Example 45, 1-[4-(D-alanyloxy)butylamino]anthracene-9,10-dione trifluoroacetate], the “TopIIα Cleave.” value on Topoisomerase IIα was “—”. At Topoisomerase IIβ, the “TopIIβ Cleave.” value is 20. Moreover, the “QE50 Intercalating” value in assay [1] is recorded as “NB”. Besides, the “QH50 Minor groove binding” value in assay [2] was “NB”.
